Data published in article PMC4414146, “PACE4 inhibitors and their peptidomimetic analogs block prostate cancer tumor progression through quiescence induction, increased apoptosis and impaired neovascularisation” (Oncotarget, 2015).
Where two headings read alike, the source gives them in different places. Where a SMILES comes first, the peptide text is derived from it. [ ]: non-standard residue; d: D form. The star is where a group is joined. NOTA = O=C(O)CN1CCN(CC(=O)O)CCN(CC(=O)*)CC1; NH(4-amidinobenzyl) = N=C(N)c1ccc(CN*)cc1

Experiments:
[1] = LNCaP cell-based peptide stability assay; assay type: in vitro ADME; conditions: human, LNCaP cells, HPLC, read-out: T½ LNCaP cells (converted)
Procedure: (§1) LNCaP cell-based stability assays were performed in Poly-(L)lysine coated 96-wells plates seeded at a density of 1,500 cells/wells. 100 μg of peptides were added 24 hours after plating without media change. Media was collected and mixed with 5 μL of trifluororacetic acid 5% to stop peptide degradation. Ex vivo plasmatic stability assays were performed as previously described. Briefly, compounds (0.5 μg/μL) were incubated with CD1 mouse plasma from mixed-sex animals collected with heparin sodium (Novi, USA). Reaction was stop by addition of 150 μL guanidine HCl and 300 μL of acetonitrile and peptides were extracted by centrifugation. For both in vitro and ex vivo stability assays, peptide stability was assessed from reverse phase HPLC and percentage of remaining peptide was calculated from area under curve and normalized to time 0.

[2] = tested on: DU145 prostate cancer cell line; assay type: cell-based; conditions: 72 h
Procedure: (§2) Cell lines were obtained from ATCC and maintained in RPMI-1640 5% FBS (DU145) and 10% FBS (LNCaP). For MTT proliferation assays, peptides were added 24 hours after seeding in 96-well plates as previously described and incubated 72 hours prior to addition of MTT reagent (Sigma-Aldrich, Canada) at final concentration of 1 mg/mL [21, 22]. Formazan salt was solubilized with 100 μL Isopropanol: HCl (24:1N) and metabolic activity was normalized relatively to vehicle-treated cells (Sterile bidistilled water). IC50 were determined using Prism 5.0 (GraphPad Software, USA).

[3] = tested on: LNCaP prostate cancer cell line; assay type: cell-based; conditions: 72 h
Procedure: as §2

LNCaP xenograft [4] = assay: LNCaP xenograft, systemic (iv) administration; assay type: in vivo, Nu/Nu male mice; conditions: daily 2 mg/kg iv; similar in control group
Procedure: For tumor implantation, trypsin-harvested LNCaP cell suspension was mixed with equal volume of matrigel (BD Biosciences, Bedford, MA) on ice and subcutaneously injected (200 μL) at 4 different sites (left/right hip and left/right shoulder) on Nu/Nu male mice (Charles River Laboratories, LaSalle, Canada) at density of 2 million cells/site. Tumors were periodically measured and the tumor volumes were calculated from the equation: Length•width^2•π/6. When tumors were fully formed and palpable, mice were divided into treatment groups. For intratumoral administration of the compound, 20 μL of peptides (2.5 μg/μL) or vehicle (5% Dimethyl sulfoxide in sterile saline) was administered directly into the tumor at interval of 48 hours. For intra-venous administration experiments, 100 μL of peptide solution (2 mg/kg) or vehicle (saline) was administered through tail vein at interval of 24 hours. The total tumor volume per animal was normalized using the following formula: (total tumor volume/total tumor volume at day 27 × 100). Blood sampling (50–75 μL) from saphenous vein was performed weekly and plasma was stored at −80°C for Prostate-specific antigen (PSA) serum levels determination using a PSA EIA assay (ClinPro International, USA). Mice were housed under pathogen-free conditions and manipulations were performed in a biosafety cabinet. […]

[5] = Ex vivo plasmatic stability assay; assay type: in vitro ADME; conditions: both sexes, CD1; ex vivo mouse plasma; read-out: T½ plasma (converted)
Procedure: as §1

[6] = Pharmacokinetic assay, intravenous 2 mg/kg, LC-MS/MS; assay type: in vivo; conditions: mouse, plasma, CD1 mice; for AUC: read-out: AUC calculated; for half-life: read-out: Half-life (in vivo plasma); for Vd: read-out: Volume of distribution
Procedure: To determine pharmacokinetic profiles of peptides, a single dose of 2 mg/kg was administered into systemic circulation from tail vein of CD1 mice (n = 4 animal/peptide). Blood was micro sampled on individual mouse at time 2.5, 5, 10, 20, 30 and 60 minutes. Plasma was collected by centrifugation and proteins were cleared from plasma using acetonitrile precipitation and supernatant was filtered using 0.2 μm PVDF centrifugal device (Canadian Life Science, Canada). Sample were analysed at PhenoSwitch Bioscience (Sherbrooke, Canada) by LC-MS/MS on a TripleTOF 5600 mass spectrometer (ABSciex, USA) equipped with DuoSpray source. Further information on mass spectrometry analyses and parameters used are presented in supplementary material.

[7] = tested on: DU145 prostate cancer cell line; conditions: MTT assay; ref Kwiatkowska et al [22]; cited from earlier work
[8] = tested on: LNCaP prostate cancer cell line; conditions: MTT assay; ref Kwiatkowska et al [22]; cited from earlier work
LNCaP xenograft [9] = assay: LNCaP xenograft, intratumoral administration; assay type: in vivo, Nu/Nu male mice; conditions: intra-tumoral, 50 μg/tumor per 48 h; vehicle 400 ± 100%
Procedure: For tumor implantation, trypsin-harvested LNCaP cell suspension was mixed with equal volume of matrigel (BD Biosciences, Bedford, MA) on ice and subcutaneously injected (200 μL) at 4 different sites (left/right hip and left/right shoulder) on Nu/Nu male mice (Charles River Laboratories, LaSalle, Canada) at density of 2 million cells/site. Tumors were periodically measured and the tumor volumes were calculated from the equation: Length•width^2•π/6. When tumors were fully formed and palpable, mice were divided into treatment groups. For intratumoral administration of the compound, 20 μL of peptides (2.5 μg/μL) or vehicle (5% Dimethyl sulfoxide in sterile saline) was administered directly into the tumor at interval of 48 hours. For intra-venous administration experiments, 100 μL of peptide solution (2 mg/kg) or vehicle (saline) was administered through tail vein at interval of 24 hours. […] Blood sampling (50–75 μL) from saphenous vein was performed weekly and plasma was stored at −80°C for Prostate-specific antigen (PSA) serum levels determination using a PSA EIA assay (ClinPro International, USA). Mice were housed under pathogen-free conditions and manipulations were performed in a biosafety cabinet. All experimental procedures were in accordance with the Canadian Council on Animal Care.

[10] = design: method as in Kwiatkowska et al [22]; conditions: ex vivo mouse plasma; ref Kwiatkowska et al [22]; cited from earlier work
[11] = biological target: T1, human recombinant and soluble PACE4 (Homo sapiens, UniProt P29122); assay: Enzymatic assay, inhibition constant toward PACE4; assay type: biochemical
T1 construct: made in house; host or cells: S2 insect cells (Drosophila Schneider 2)
T1 sequence (P29122 150-969): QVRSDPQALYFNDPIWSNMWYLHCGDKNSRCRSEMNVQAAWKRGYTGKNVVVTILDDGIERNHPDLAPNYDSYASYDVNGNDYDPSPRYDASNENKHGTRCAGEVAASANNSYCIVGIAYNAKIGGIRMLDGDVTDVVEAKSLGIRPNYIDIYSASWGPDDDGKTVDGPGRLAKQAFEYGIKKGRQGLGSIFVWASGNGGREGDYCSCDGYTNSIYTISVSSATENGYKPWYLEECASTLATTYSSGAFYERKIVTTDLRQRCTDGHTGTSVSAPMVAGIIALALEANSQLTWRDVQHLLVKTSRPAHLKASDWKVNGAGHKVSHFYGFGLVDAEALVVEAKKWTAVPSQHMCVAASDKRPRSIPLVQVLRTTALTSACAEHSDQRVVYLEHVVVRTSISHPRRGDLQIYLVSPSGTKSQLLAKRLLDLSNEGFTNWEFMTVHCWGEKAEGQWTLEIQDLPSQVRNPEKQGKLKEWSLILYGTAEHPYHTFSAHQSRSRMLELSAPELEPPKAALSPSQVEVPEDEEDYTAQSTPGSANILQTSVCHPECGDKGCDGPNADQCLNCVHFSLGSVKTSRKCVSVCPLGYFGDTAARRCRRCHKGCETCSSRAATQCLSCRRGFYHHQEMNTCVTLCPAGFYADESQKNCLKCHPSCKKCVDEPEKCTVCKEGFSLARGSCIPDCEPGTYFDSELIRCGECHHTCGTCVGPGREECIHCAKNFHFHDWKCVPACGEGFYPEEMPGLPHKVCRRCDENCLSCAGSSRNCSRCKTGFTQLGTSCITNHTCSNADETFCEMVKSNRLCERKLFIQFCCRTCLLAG
Procedure: Inhibition constants (Ki) were determined using human recombinant and soluble PACE4 and furin produced in S2 insect cells and purified as previously described. The enzymatic assays were performed as described.

[12] = biological target: T1, human recombinant and soluble PACE4; conditions: ref Kwiatkowska et al [22]; cited from earlier work

Compound: CC(=O)N[C@H](CC(C)C)C(=O)N[C@@H](CC(C)C)C(=O)N[C@@H](CC(C)C)C(=O)N[C@@H](CC(C)C)C(=O)N[C@@H](CCCNC(=N)N)C(=O)N[C@H](C(=O)N[C@@H](CCCCN)C(=O)NCc1ccc(C(=N)N)cc1)C(C)C [Ac-[DLeu]LLLRVK-Amba] (Ac-[dL]LLLRVK-{NH(4-amidinobenzyl)})
- half-life [1]: > 72 h
- IC50 [2]: 25 ± 10 µM
- IC50 [3]: 40 ± 10 µM
- body weight loss (LNCaP xenograft [4]): 10%
- half-life at 0.5 μg/μL [5]: 18 ± 3 h
- clearance [6]: 0.5 ± 0.1 mL/min
- AUC [6]: 2170 ng·h/mL
- half-life [6]: 9 ± 3 min
- Vd [6]: 0.006 ± 0.004 L

Compound: CC(=O)N[C@@H](CC(C)C)C(=O)N[C@@H](CC(C)C)C(=O)N[C@@H](CC(C)C)C(=O)N[C@@H](CC(C)C)C(=O)N[C@@H](CCCNC(=N)N)C(=O)N[C@H](C(=O)N[C@@H](CCCCN)C(=O)NCc1ccc(C(=N)N)cc1)C(C)C [Ac-LLLLRVK-Amba] (Ac-LLLLRVK-{NH(4-amidinobenzyl)})
- IC50 [7]: 25 ± 10 µM
- IC50 [8]: 40 ± 15 µM
- mean tumoral volume at day 59 compared to day 25 (LNCaP xenograft [9]): 100 ± 30%

Compound: CC(=O)N[C@@H](CC(C)C)C(=O)N[C@@H](CC(C)C)C(=O)N[C@@H](CC(C)C)C(=O)N[C@@H](CC(C)C)C(=O)N[C@@H](CCCN=C(N)N)C(=O)N[C@H](C(=O)N[C@@H](CCCCN)C(=O)NCc1ccc(C(=N)N)cc1)C(C)C [Ac-LLLLRVK-Amba] (Ac-LLLLRVK-{NH(4-amidinobenzyl)})
- half-life [1]: > 72 h
- T½ plasma [10]: 12 ± 2 h

Compound: CC(C)C[C@H](NC(=O)[C@H](CC(C)C)NC(=O)[C@H](CC(C)C)NC(=O)[C@@H](CC(C)C)NC(=O)CN1CCN(CC(=O)O)CCN(CC(=O)O)CC1)C(=O)N[C@@H](CCCNC(=N)N)C(=O)N[C@H](C(=O)N[C@@H](CCCCN)C(=O)NCc1ccc(C(=N)N)cc1)C(C)C [NOTA-[DLeu]LLLRVK-Amba] ({NOTA}-[dL]LLLRVK-{NH(4-amidinobenzyl)})
- Ki PACE4 [11]: 0.006 ± 0.002 µM

Compound: Ac-LLLLRVKR-NH2 [Ac-LLLLRVKR-NH2]
- half-life [1]: 21 ± 2 h
- T½ plasma [10]: 5.1 ± 0.8 h
- clearance [6]: 0.6 ± 0.1 mL/min
- AUC [6]: 1670 ng·h/mL
- half-life [6]: 8 ± 5 min
- Vd [6]: 0.008 ± 0.007 L

Compound: CC(=O)N[C@H](CC(C)C)C(=O)N[C@@H](CC(C)C)C(=O)N[C@@H](CC(C)C)C(=O)N[C@@H](CC(C)C)C(=O)N[C@@H](CCCNC(=N)N)C(=O)N[C@H](C(=O)N[C@@H](CCCCN)C(=O)N[C@@H](CCCNC(=N)N)C(N)=O)C(C)C [Ac-[DLeu]LLLRVKR-NH2]
- half-life [1]: 38 ± 8 h
- Ki PACE4 [12]: 0.023 ± 0.001 µM
- T½ plasma [10]: 8 ± 1 h
